These results are taken from patent US20030157516A1, “G protein coupled receptor” (priority 2000, published 2003).

Several values for one entry are separate records, joined by “and”; a condition that tells them apart may be missing. Equal values may be shown once.

The test system of experiment [1] is wild type CHO cells. The experiment can be described thus: cAMP measurements on wild type CHO cells. The following applies: wild type. The class given is cell-based. Here is the method: For permanently transfected CHO cells, cAMP measurements were performed using the indirect RIA kit from NEN (Belgium).
a) Methods: Two days before the experiment the cells were seeded out in a 96 well plate at a density required for approximately 90% confluence at the day of the experiment. After removal of the growth medium, the cells were washed twice with a controlled salt solution (CSS) containing 25 mM Tris-HCl, pH 7.4, 120 mM NaCl, 5.4 mM KCl, 0.8 mM MgCl2, 1.8 mM CaCl2, 15 mM glucose and 15 mg/l phenol red, with an addition of a phosphodiesterase inhibitor IBMX (3-isobutyl-1-methylxanthine) in a concentration of 1 mM and […]. Basal cAMP levels were determined in CSS containing these additives and maximally stimulated cAMP levels were determined in the presence of 50 μM forskolin. For testing agonistic activity, the compounds were incubated with the cells for 20 minutes at 37° C. The reaction was stopped by addition of ice cold HClO4 (1N) and stored at −20° C. After thawing the mixtures were neutralized with an equivalent amount of phosphate buffered KOH, left at 4° C. during 30 minutes to allow the salts to precipitate and centrifuged at 2,000 RPM for 5 minutes at 4° C.
For the quantitative determination of the cAMP levels, a 96-well Flashplate radioimmunoassay kit from NEN was used, according to the protocol of the supplier. The sigmoid concentration response curves (duplicate points) were analyzed using the GraphPad Prism program.

In a further experiment the target is T1, rat adenine binding GPCR (Rattus norvegicus, UniProt Q7TN49).
T1 sequence (Q7TN49 1-304): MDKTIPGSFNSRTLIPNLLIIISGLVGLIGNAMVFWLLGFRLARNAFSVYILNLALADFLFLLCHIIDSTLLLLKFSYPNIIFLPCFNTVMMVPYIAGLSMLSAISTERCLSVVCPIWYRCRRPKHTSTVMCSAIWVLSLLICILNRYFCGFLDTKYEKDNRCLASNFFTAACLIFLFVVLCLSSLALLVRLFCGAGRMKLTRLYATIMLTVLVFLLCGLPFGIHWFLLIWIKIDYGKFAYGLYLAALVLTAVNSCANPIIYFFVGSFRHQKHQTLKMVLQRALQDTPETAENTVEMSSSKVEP
The experiment in a line: FLIPR Ca2+ transient assay, agonism, HEK293/Gq chimera cells transiently transfected with rat adenine binding GPCR/pcDNA3. Format: cell-based. Set-up: The full length reading frame was inserted into the mammalian expression vector pcDNA3; expressed in transfected cells; host or cells: HEK293 cells stably transfected with pLEC/Gqi or pLEC/Gqo. The following applies: for agonistic effects on Ca2+ transients: concentrations ranging from 30 μM to 30 pM; for calcium transients elicited: HEK293/Gaqo cells, 3.3 μM. The text has this: This assay is based around an instrument called a FLuorescence Imaging Plate Reader ((FLIPR®), Molecular Devices Corporation). In its most common configuration, it excites and measures fluorescence emitted by fluorescein-based dyes. It uses an argon-ion laser to produce high power excitation at 488 nm of a fluorophore, a system of optics to rapidly scan the over the bottom of a 96-/384-well plate and a sensitive, cooled CCD camera to capture the emitted fluorescence. It also contains a 96-/384-well pipetting head allowing the instrument to deliver solutions of test agents into the wells of a 96-/384-well plate. The FLIPR assay is designed to measure fluorescence signals from populations of cells before, during and after addition of compounds, in real time, from all 96-/384-wells simultaneously. […] As described below, calcium transients in cells transfected with adenine binding GPCR were measured using the FLIPR assay in order to measure activation of the receptors by various substrates in order to determine the natural ligand of the receptor.
The full length reading frame was inserted into the mammalian expression vector pcDNA3 (Invitrogen, Carlsbad, Calif., U.S.A.) and the resulting expression construct was transiently transfected with the FuGENE 6 reagent (Roche Molecular Biochemicals, Mannheim, Germany) into HEK293 cells stably transfected (E. Bender, unpublished) with pLEC/Gqi or pLEC/Gqo (Molecular Devices, Sunnyvale, Calif., U.S.A.). The cells were loaded with Fluo-4 (Molecular Probes, Eugene, Oreg., U.S.A.) according to the recommendations of the supplier. […]
Using the FLIPR assay as above, calcium transients were measured in both sets of cells with the transients attributable to the novel GPCR measured as the difference between the two transients. Results are illustrated in FIG. 4. […]

The target of experiment [2] is T2, adenine binding rat receptor (Rattus norvegicus, UniProt Q7TN49).
T2 construct: expressed in transfected cells; host or cells: CHO cells, transient, lipofectamine PLUS
T2 sequence (Q7TN49 1-304): T1 sequence (Q7TN49 1-304)
The experiment can be described thus: [3H]adenine competition binding on CHO membranes transiently transfected. The following applies: transfected cells, 15 nM [3H]adenine. Here is the method: (§1) The membranes were prepared as total particulate fractions. The cell lines were cultured to 906 confluency on 145 mm petri dishes and treated with 5 mM sodium butyrate, 24 hours before collection. The culturing medium was removed and the cells were washed twice with ice cold phosphate buffered saline (PBS without Ca^2+ and Mg^2+), scraped from the plates in 50 mM Tris-HCl buffer, pH 7.4, and collected by centrifugation (10 minutes at 16,000 RPM at 4° C.). The cell pellet was re-suspended in hypotonic 5 mM Tris-HCl buffer, pH 7.4, and homogenized with an Ultra Turrax homogenizer (Janker Kunkel, Germany). The homogenate was centrifuged at 18,000 RPM for 20 minutes at 4° C. The final pellet was re-suspended in 50 mM Tris-HCl buffer, pH 7.4 and stored in aliquots at −70° C. A protein determination was performed using the Bradford protein assay (Biorad, Germany) using bovine serum albumin (BSA) as standard.
(§2) A) Methods—[3H]Adenine binding experiments were performed to characterize wild type cell lines before transfection as well as transiently and permanently transfected cell lines. Membranes were thawed on ice and diluted in 50 mM HEPES buffer, pH 7.4 supplemented with 10 mM MgCl2 and 1 mM EGTA. […] Both assays were carried out in a final volume of 500 μl, using 18 μg of membrane protein for the transfected CHO cells and 30 μg of membrane protein for the wild type CHO cells for the saturation binding. For competition binding experiments, 15 and 50 μg of membrane protein was used for the transfected and wild type cells, respectively. The reaction was terminated by rapid filtration through Whatman GF/B filters using a Brandel multi-channel cell harvester (96 wells). The filters were washed three times with 3 ml ice cold 50 mM HEPES buffer, pH 7.4, transferred to liquid scintillation vials and 3 ml of scintillation fluid (Ultima Gold MV, Packard, Netherlands) was added. Samples were counted in a β-scintillation counter after at least 6 hours to permit the glass fiber filters to become uniformly translucent.

Experiment [3] deals with wild type CHO cells. The experiment in a line: [3H]adenine competition binding on wild type CHO membranes. The conditions noted are these: 15 nM [3H]adenine. Here is the method:
as §1, with “The cell lines were cultured to 906 confluency on 145 mm petri dishes and treated with 5 mM sodium butyrate, 24 hours before collection.” left out
as §2, with “Membranes” for “A) Methods—[3H]Adenine binding experiments were performed to characterize wild type cell lines before transfection as well as transiently and permanently transfected cell lines. Membranes”

Another experiment addresses T3, adenine binding GPCR (Rattus norvegicus, UniProt Q7TN49).
T3 construct: The full length reading frame was inserted into the mammalian expression vector pcDNA3; expressed in transfected cells; host or cells: HEK293 cells stably transfected with pLEC/Gqi or pLEC/Gqo
T3 sequence (Q7TN49 1-304): T1 sequence (Q7TN49 1-304)
The experiment can be described thus: FLIPR Ca2+ transient assay, antagonism of 30 nM adenine challenge. Format: cell-based. The following applies: 15 minutes incubation with compound (30 μM to 30 pM), then challenge with 30 nM adenine. The text has this:
The full length reading frame was inserted into the mammalian expression vector pcDNA3 (Invitrogen, Carlsbad, Calif., U.S.A.) and the resulting expression construct was transiently transfected with the FuGENE 6 reagent (Roche Molecular Biochemicals, Mannheim, Germany) into HEK293 cells stably transfected (E. Bender, unpublished) with pLEC/Gqi or pLEC/Gqo (Molecular Devices, Sunnyvale, Calif., U.S.A.). The cells were loaded with Fluo-4 (Molecular Probes, Eugene, Oreg., U.S.A.) according to the recommendations of the supplier.
After a 15 minutes incubation at room temperature, the same cells were challenged with 30 nM adenine, to detect antagonistic properties of molecules added in the first round of superfusion.

For `C=C[C@@]1(C)CC(=O)[C@]2(O)[C@@]3(C)[C@@H](O)CCC(C)(C)[C@@H]3[C@H](O)[C@H](OC(C)=O)[C@@]2(C)O1` [forskolin], the “cAMP level with Forskolin 50 μM” value with wild type CHO cells [1] (0.5% hiFCS, induction) was 25 pmol/well; in the experiment with wild type CHO cells [1] (0.5% hiFCS, no induction) it was 26 pmol/well; in the experiment with wild type CHO cells [1] (10% hiFCS, induction), 63 pmol/well; in the experiment with wild type CHO cells [1] (10% hiFCS, no induction) it was 107 pmol/well.
In general, pIC50 refers to the negative decadic logarithm of the IC50, by convention in mol/L. As to `Nc1ncnc2c1ncn2[C@@H]1O[C@H](COP(=O)(O)OP(=O)(O)O)[C@@H](O)[C@H]1O` [ADP], at rat adenine binding GPCR, the “agonistic effects on Ca2+ transients” value is listed as “No further agonistic effects”. The pIC50 (in experiment [2] (mean of n experiments); in experiment [2] (single experiments); in the experiment on wild type CHO cells [3] (mean of n experiments); in the experiment with wild type CHO cells [3] (single experiments)) was under 4 throughout. Besides, the antagonistic effect result on adenine binding GPCR is “did not elicit antagonistic effects”.
For orientation: IC50 means the point on the concentration scale where inhibition reaches its midpoint. Low values mean inhibition by little substance, high ones a need for much substance. The term Ki denotes the equilibrium dissociation constant of an inhibitor or competing ligand from its target. Lower therefore signals a stronger hold on the target. As for `Nc1ncnc2c1ncn2[C@@H]1O[C@H](CO)[C@@H](O)[C@H]1O` [Adenosine, adenosine], the “agonism of nucleoside and nucleotide derivatives of adenine” value on rat adenine binding GPCR (at high concentrations (>3.3 μM)) is recorded as “weak partial agonism”. Besides, the IC50 in experiment [2] (mean of n experiments) was about 100 µM; in experiment [2] (single experiments), > 100 µM and 72.4 µM. The same molecule showed a Ki in experiment [2] (single experiments) of 44.6 µM. The pIC50 in the experiment with wild type CHO cells [3] (mean of n experiments) and in the experiment on wild type CHO cells [3] (single experiments) was under 4 throughout. Besides, the antagonistic effect entry at adenine binding GPCR is on record as “did not elicit antagonistic effects”.
Consider `Nc1nc2nc[nH]c2c(=O)[nH]1` [Guanine, guanine], for which, at rat adenine binding GPCR, the calcium transients elicited result is given as “could not be elicited”. Further, the “agonistic effects on Ca2+ transients” value on rat adenine binding GPCR is listed as “No further agonistic effects”. Moreover, the IC50 in experiment [2] (mean of n experiments) and in experiment [2] (single experiments) was over 100 µM in each case. The pIC50 in the experiment with wild type CHO cells [3] (mean of n experiments) and with wild type CHO cells [3] (single experiments) was under 4 each time. The antagonistic effect entry at adenine binding GPCR is “weak antagonistic effect”.
As to `O=c1[nH]cnc2nc[nH]c12` [Hypoxanthine, hypoxanthine], the calcium transients elicited entry at rat adenine binding GPCR was “could not be elicited”. For the same molecule, the “agonistic effects on Ca2+ transients” value at rat adenine binding GPCR was “No further agonistic effects”. Also, the IC50 in experiment [2] (mean of n experiments) and in experiment [2] (single experiments) was over 100 µM throughout. The pIC50 with wild type CHO cells [3] (mean of n experiments) and in the experiment on wild type CHO cells [3] (single experiments) was under 4 in each case. Further, on adenine binding GPCR, the antagonistic effect entry is recorded as “did not elicit antagonistic effects”.
Consider `Nc1ncnc2c1ncn2[C@@H]1O[C@H](COP(=O)(O)OP(=O)(O)OP(=O)(O)O)[C@@H](O)[C@H]1O` [ATP], for which the “agonistic effects on Ca2+ transients” value on rat adenine binding GPCR is given as “No further agonistic effects”. Further, the Ki in experiment [2] (mean of n experiments) was 52.8 µM; in experiment [2] (single experiments), 58.5 µM (2×) and 40.7 µM. For the same molecule, the pIC50 in experiment [2] (mean of n experiments) was 4.07; in experiment [2] (single experiments) it was 4.02 and 4.18; in the experiment on wild type CHO cells [3] (mean of n experiments), under 4; with wild type CHO cells [3] (single experiments), under 4. Further, the antagonistic effect entry on adenine binding GPCR is on record as “did not elicit antagonistic effects”.
